Patent US20250177566A1, “USE OF CHEMICAL EPIGENETIC MODIFIERS TO MODULATE GENE EXPRESSION” (The University of North Carolina at Chapel Hill, priority 2022, published 2025)
Read-outs that look alike come from different tables or passages of the source.

Columns and labels:
[1] = system: TRE3G-GFP reporter gene; test: TRE3G-GFP reporter gene activation in HCT116, dCas9 + MS2-FKBP*x2 (F36V) system, flow cytometry; assay type: cell-based, human; set-up: fold change, GFP: reference not given here; conditions: for fold change, GFP: FIG. 5C, NT gRNA, 48 hrs
[2] = system: CXCR4; test: CXCR4 mRNA activation in HCT116 stably expressing dCas9 and MS2-FKBP*x2, qRT-PCR; assay type: cell-based, human
Summary of the method: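 HCT116 cells stably expressing dCas9 and MS2-FKBP*x2 with CXCR4 gRNA were treated with CEMs (screen at 5 nM; 1–50 nM range). CXCR4 mRNA measured by one-step qRT-PCR after 48 h, or at 12–96 h in time course. Reversibility tested by washout after 24 h, optionally with 20 μM AP1867.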

[3] = system: CXCR4; test: CXCR4 mRNA activation in HCT116 stably expressing dCas9 and MS2-FKBPx2 (WT-FKBP), qRT-PCR; assay type: cell-based, human; conditions: FIG. 6, WT FKBP system, 48 hrs
[4] = system: TRE3G-GFP reporter gene; conditions: WT FKBP (MS2-FKBPx2), 48 hrs
Protocol: HCT116 cells were transfected with TRE3G-GFP, dCas9, MS2-FKPB*x2, and TRE3G gRNA or NT gRNA. After 48 hrs of 10 nM SLF*-CEMa treatment, flow cytometry was performed and mean fluorescent value was collected. […] TRE3G-GFP, dCas9, MS2-FKBP*2, TRE3G gRNA or NT gRNA were transfected into HCT116 cells. The media was changed to media with 5 nM CEM207 together with 0 nM, 50 nM, 500 nM or 5000 nM of AP1867, respectively. After 48 hrs chemical exposure, flow cytometry was performed and the mean fluorescent value was measured in each group of cells. […] FIGS. 5D and 5E are dose curves of CEMa molecules activating the GFP reporter gene in HCT116 cells using WT FKBP and dCas9 as DNA binding module. HCT116 cells were transfected with dCas9, MS2-FKBPx2, TRE3G-GFP constructs, along with TRE3G gRNA or NT gRNA. Cells were treated with different concentrations of CEMa molecules for 48 hrs before flow cytometry was conducted. […] Error bars represent the standard deviation.
To better understand the activity of SLF*-CEMa in the WT FKBP-based GFP reporter assay, a similar dose-response assay was conducted in HCT116 cells transfected with dCas9 and MS2-FKBPx2 (FIGS. 1D and 1E).
Flow cytometry. All flow cytometry experiments were performed with Attune Nxt as previously described. […] Significance was determined by Student's t-test.

COc1ccc2c(c1)C(c1ccc(Cl)cc1)=N[C@@H](CC(=O)NCc1cn(CCOCCOCCOCCNC(=O)CCSCCC[C@@H]3/C=C(\C)C[C@H](C)C[C@H](OC)[C@H]4O[C@@](O)(C(=O)C(=O)N5CCCC[C@H]5C(=O)O[C@H](/C(C)=C/[C@@H]5CC[C@@H](O)[C@H](OC)C5)[C@H](C)[C@@H](O)CC3=O)[C@H](C)C[C@@H]4OC)nn1)c1nnc(C)n1-2 [CEM87, reference compound]
concentration at which significant GFP activation was first achieved ([1]; FIG. 1E, FKBP* system, TRE3G gRNA, 48 hours): 50 nM | fold change, GFP (Treated vs Non-Treated) ([1]; FIG. 1E, TRE3G gRNA, 0.25 nM, 48 hours): 1.1 fold | fold change, GFP (Treated vs Non-Treated) ([1]; FIG. 1E, TRE3G gRNA, 0.5 nM, 48 hours): 1.1 fold | fold change, GFP (Treated vs Non-Treated) ([1]; FIG. 1E, TRE3G gRNA, 0.75 nM, 48 hours): 1.1 fold | fold change, GFP (Treated vs Non-Treated) ([1]; FIG. 1E, TRE3G gRNA, 1 nM, 48 hours): 1.1 fold | fold change, GFP (Treated vs Non-Treated) ([1]; FIG. 1E, TRE3G gRNA, 2.5 nM, 48 hours): 1.2 fold | fold change, GFP (Treated vs Non-Treated) ([1]; FIG. 1E, TRE3G gRNA, 5 nM, 48 hours): 1.1 fold | fold change, GFP (Treated vs Non-Treated) ([1]; FIG. 1E, TRE3G gRNA, 7.5 nM, 48 hours): 1.1 fold | fold change, GFP (Treated vs Non-Treated) ([1]; FIG. 1E, TRE3G gRNA, 10 nM, 48 hours): 1.2 fold | fold change, GFP (Treated vs Non-Treated) ([1]; FIG. 1E, TRE3G gRNA, 25 nM, 48 hours): 1.6 fold | fold change, GFP (Treated vs Non-Treated) ([1]; FIG. 1E, TRE3G gRNA, 50 nM, 48 hours): 5.2 fold | fold change, GFP (Treated vs Non-Treated) ([1]; FIG. 1E, TRE3G gRNA, 75 nM, 48 hours): 7.8 fold | fold change, GFP (Treated vs Non-Treated) ([1]; FIG. 1E, TRE3G gRNA, 100 nM, 48 hours): 9.7 fold | fold change, GFP ([1]; 0.25 nM): 1.1 fold | fold change, GFP ([1]; 0.5 nM): 1.1 fold | fold change, GFP ([1]; 0.75 nM): 1.0 fold | fold change, GFP ([1]; 1 nM): 1.0 fold | fold change, GFP ([1]; 2.5 nM): 1.1 fold | fold change, GFP ([1]; 5 nM): 1.0 fold | fold change, GFP ([1]; 7.5 nM): 1.0 fold | fold change, GFP ([1]; 10 nM): 1.0 fold | fold change, GFP ([1]; 25 nM): 1.0 fold | fold change, GFP ([1]; 50 nM): 1.0 fold | fold change, GFP ([1]; 75 nM): 1.0 fold | fold change, GFP ([1]; 100 nM): 1.0 fold | fold change, CXCR4 mRNA (Treated vs Non-Treated) ([2]; FIG. 2C, 5 nM, 48 hrs): 1.5 fold | fold change, CXCR4 mRNA (CEM Treated vs Non-Treated) ([2]; FIG. 2D, CXCR4 gRNA, 1 nM, 48 hrs): 1.16 fold | fold change, CXCR4 mRNA (CEM Treated vs Non-Treated) ([2]; FIG. 2D, CXCR4 gRNA, 5 nM, 48 hrs): 1.03 fold | fold change, CXCR4 mRNA (CEM Treated vs Non-Treated) ([2]; FIG. 2D, CXCR4 gRNA, 25 nM, 48 hrs): 1.19 fold | fold change, CXCR4 mRNA (CEM Treated vs Non-Treated) ([2]; FIG. 2D, CXCR4 gRNA, 50 nM, 48 hrs): 1.53 fold | fold change, CXCR4 mRNA (CEM Treated vs Non-Treated) ([2]; FIG. 2D, NT gRNA, 1 nM, 48 hrs): 0.85 fold | fold change, CXCR4 mRNA (CEM Treated vs Non-Treated) ([2]; FIG. 2D, NT gRNA, 5 nM, 48 hrs): 0.81 fold | fold change, CXCR4 mRNA (CEM Treated vs Non-Treated) ([2]; FIG. 2D, NT gRNA, 25 nM, 48 hrs): 0.91 fold | fold change, CXCR4 mRNA (CEM Treated vs Non-Treated) ([2]; FIG. 2D, NT gRNA, 50 nM, 48 hrs): 1.18 fold | activation of CXCR4 mRNA expression ([2]; FIG. 2D, all concentrations tested (1-50 nM), 48 hours): no significant activation | fold change, CXCR4 mRNA (CXCR4 gRNA vs NT gRNA) ([3]; 25 nM): 21.5 fold | fold change, CXCR4 mRNA (CXCR4 gRNA vs NT gRNA) ([3]; 50 nM): 16.5 fold | fold change, CXCR4 mRNA (CXCR4 gRNA vs NT gRNA) ([3]; 200 nM): 19.0 fold | fold change, GFP (Treated vs Non-Treated) ([4]; FIG. 5D, 10 nM): 22.5 fold | fold change, GFP (Treated vs Non-Treated) ([4]; FIG. 5D, 25 nM): 23.1 fold | fold change, GFP (Treated vs Non-Treated) ([4]; FIG. 5D, 50 nM): 22.1 fold | fold change, GFP (Treated vs Non-Treated) ([4]; FIG. 5D, 100 nM): 22.0 fold | fold change, GFP (Treated vs Non-Treated) ([4]; FIG. 5D, 200 nM): 18.7 fold | fold change, GFP (Treated vs Non-Treated) ([4]; FIG. 5D, 400 nM): 18.3 fold | fold change, GFP (Treated vs Non-Treated) ([4]; FIG. 5E, 10 nM): 1.0 fold | fold change, GFP (Treated vs Non-Treated) ([4]; FIG. 5E, 25 nM): 1.1 fold | fold change, GFP (Treated vs Non-Treated) ([4]; FIG. 5E, 50 nM): 1.1 fold | fold change, GFP (Treated vs Non-Treated) ([4]; FIG. 5E, 100 nM): 1.2 fold | fold change, GFP (Treated vs Non-Treated) ([4]; FIG. 5E, 200 nM): 1.1 fold | fold change, GFP (Treated vs Non-Treated) ([4]; FIG. 5E, 400 nM): 1.2 fold
